Here are results for two compounds from PMC11965388 (Nature Communications, 2025).

Assay [1] deals with T1, α6β4^L121F (human α6β4 nAChR, L121F in β4) (Homo sapiens, UniProt P30926+Q15825, L142F). Put plainly: cell-based.
The next assay concerns pain. The following applies: mice; cited from earlier work.
Assay [2] has as its target T1, α6β4^L121F (human α6β4 nAChR, L121F in β4). To be noted: L121F vs WT, two-electrode voltage clamp. In general terms: Two-electrode voltage clamp is typically applied to oocytes expressing channels or transporters.
The target in assay [3] is human α6β4 nAChR (α6β4^WT) (Homo sapiens, UniProt P30926+Q15825). As to the kind of experiment: Two-electrode voltage clamp in Xenopus oocytes, wild-type α6β4. In kind it is cell-based. The following applies: times higher affinity than nicotine.
For another assay, the system named is neuropathic pain. To be noted: cited from earlier work.

As usually defined, the EC50 is the midpoint of the concentration-response curve. High values mean a less potent agent, low ones a more potent agent.

T1 sequence (Q15825 31-494 limits assumed): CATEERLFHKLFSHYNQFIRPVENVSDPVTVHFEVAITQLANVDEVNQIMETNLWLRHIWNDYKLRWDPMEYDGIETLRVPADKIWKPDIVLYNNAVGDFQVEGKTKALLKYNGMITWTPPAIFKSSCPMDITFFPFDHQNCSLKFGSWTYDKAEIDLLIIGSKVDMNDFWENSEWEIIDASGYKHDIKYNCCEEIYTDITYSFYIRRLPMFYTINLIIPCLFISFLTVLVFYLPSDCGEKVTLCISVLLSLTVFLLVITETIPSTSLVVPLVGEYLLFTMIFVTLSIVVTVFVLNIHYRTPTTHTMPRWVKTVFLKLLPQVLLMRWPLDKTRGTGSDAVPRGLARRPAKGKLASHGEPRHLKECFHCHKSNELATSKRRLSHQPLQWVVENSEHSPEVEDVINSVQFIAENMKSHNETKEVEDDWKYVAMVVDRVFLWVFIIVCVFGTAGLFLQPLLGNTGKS
T1 sequence (P30926 22-498 L142F): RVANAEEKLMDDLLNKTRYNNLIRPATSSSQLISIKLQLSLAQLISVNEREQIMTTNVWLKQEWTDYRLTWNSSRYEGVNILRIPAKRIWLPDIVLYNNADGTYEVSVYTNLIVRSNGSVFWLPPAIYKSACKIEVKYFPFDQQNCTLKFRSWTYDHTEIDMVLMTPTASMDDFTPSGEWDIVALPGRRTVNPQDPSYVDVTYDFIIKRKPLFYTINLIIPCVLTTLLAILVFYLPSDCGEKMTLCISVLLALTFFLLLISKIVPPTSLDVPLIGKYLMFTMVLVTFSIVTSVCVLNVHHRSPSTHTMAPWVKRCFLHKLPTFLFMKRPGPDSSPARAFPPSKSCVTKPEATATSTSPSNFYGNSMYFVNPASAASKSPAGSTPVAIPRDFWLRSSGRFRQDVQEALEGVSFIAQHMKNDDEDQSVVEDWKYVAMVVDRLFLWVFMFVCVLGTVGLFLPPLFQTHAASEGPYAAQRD
Chain of human α6β4 nAChR (α6β4^WT) (Q15825 31-494 limits assumed): as the sequence (Q15825 31-494 limits assumed) above
Chain of human α6β4 nAChR (α6β4^WT) (P30926 22-498): as the sequence (P30926 22-498 L142F) above, with F121L counted along it

The compound `CN1CCC[C@H]1c1cccnc1` [nicotine] gave an EC50 in assay [1] of 2200 ± 400 nM. Besides, the analgesic effect result in the assay with pain was “effective analgesics”. Besides, the “increase of binding affinity of α6β4 for nicotine by L121F mutation in β4” value in assay [2] is given as “approximately 10 fold”.
As to `Clc1ccc(OC[C@H]2CCN2)cn1` [tebanicline, (R)-5-(2-azetidinylmethoxy)-2-chloropyridine], in assay [3], the “affinity for α6β4 relative to nicotine” value was “approximately 50 times”. In the assay on pain, the analgesic effect entry is “effective analgesics”. Besides, the “analgesic activity against neuropathic pain” value with neuropathic pain is reported as “potent analgesic activity”.
